How the values were obtained:
[1] = target: VHL co-expressed with Elongins B and C (Homo sapiens (Human), UniProt P40337); assay: Surface Plasmon Resonance Assay; type: binding; settings: SPR measured VHL affinity; geometric mean where more than one measurement
Method: Using a Biacore T200, […] tagged VHL co-expressed with Elongins B and C were immobilized to a Biacore SA chip in running buffer without DMSO. Compounds were tested individually at varying concentrations in running buffer (50 mM HEPES pH 7.2, 150 mM NaCl, 0.5 mM TCEP, 0.001% Tween 20, 0.2% PEG3350, 2% DMSO) at 20° C. Sensorgrams were run in order from low to high concentration using a flow rate of 80 μL/min. Association and disassociation times were varied depending on the estimated potency of the compound tested. […] Galdeano et al, J. Med. Chem. 2014, 57, 8657-8663, herein incorporated by reference) which retained greater than 75% of the activity over the course of the run. Analysis of the binding curves and determination of the kinetic parameters were done using evaluation software (Version 2.0, Biacore).

VHL Elongin B/C complex = VHL Elongin B/C complex (Homo sapiens (Human), UniProt P40337); assay: Fluorescence Polarization (FP) VHL Binding Assay; settings: for IC50: VHL binding, FP assay, geometric mean where more than one measurement
Sequence of VHL Elongin B/C complex (P40337 whole entry, looked up, the tested form may be a part): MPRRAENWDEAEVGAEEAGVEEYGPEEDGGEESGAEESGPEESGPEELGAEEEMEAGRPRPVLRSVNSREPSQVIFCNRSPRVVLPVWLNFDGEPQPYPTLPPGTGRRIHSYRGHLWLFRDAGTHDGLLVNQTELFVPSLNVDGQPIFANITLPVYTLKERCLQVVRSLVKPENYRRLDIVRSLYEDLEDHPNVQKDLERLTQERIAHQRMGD
Sequence of VHL Elongin B/C complex (Q15370 whole entry partner, looked up, the tested form may be a part): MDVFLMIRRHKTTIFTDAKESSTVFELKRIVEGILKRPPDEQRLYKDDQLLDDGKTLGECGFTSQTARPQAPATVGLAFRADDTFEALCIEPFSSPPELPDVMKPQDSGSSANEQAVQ
Sequence of VHL Elongin B/C complex (Q15369 whole entry partner, looked up, the tested form may be a part): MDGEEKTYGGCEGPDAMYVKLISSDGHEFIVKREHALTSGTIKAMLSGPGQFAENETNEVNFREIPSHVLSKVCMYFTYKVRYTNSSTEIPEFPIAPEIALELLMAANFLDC
Method: The binding of test compounds to the VHL Elongin B/C complex was measured using a fluorescence polarization tracer competition assay. The VHL/Elongin B/C protein complex used in the assay was generated as follows. The coding region for amino acids E55-D213 of human VHL with N-terminal His6 tag with a TEV-protease cleavage site was co-expressed with Elongin B (residues M1-Q118) and Elongin C (Residues M17-C112) in E. coli. […] The purified VHL/Elongin B/C complex was dialyzed into formulation buffer: 20 mM Bis-Tris pH7.0, 150 mM NaCl, 1 mM DTT. A VHL fluorescence polarization probe (prepared in Example 91), consisted of a VHL ligand coupled to carboxytetramethylrhodamine (TAMRA); […] Compounds were prepared as a serial dilution in DMSO at a concentration 25-fold higher than the final desired concentration and acoustically dispensed (400 nl) into a ProxiPlate-384 Plus F, Black 384-shallow well Microplate (Part Number 6008260). DMSO was dispensed into wells designated for “VHL control” (without compound) wells. The “Assay Buffer” consisted of 50 mM Tris pH 8.0, 120 mM NaCl, 0.005% Nonidet P-40, and 1% DMSO (v/v). Assay Buffer containing […] VHL Elongin B/C complex was prepared and 5 μl dispensed using a BioRapTR (Beckman Coulter) into each well of the assay plate. Assay Buffer was also dispensed into “no VHL control” wells using the same method. A “pre-assay” fluorescence measurement was made using an Infinite® M1000 (Tecan) plate reader (Excitation 530 nm, Emission 574 nm, Bandwidth 10 nm). Assay Buffer containing 3.34 nM of the VHL FP probe was prepared in Assay Buffer and 5 μl dispensed into each well of the assay plate using a BioRapTR (Beckman Coulter). The final VHL/Elongin B/C protein concentration is 2.64 nM and the final probe concentration is 1.67 nM. Assay plates were briefly centrifuged and incubated for 1 hour at room temperature. “Post-assay” fluorescence polarization measurements were made as described for the “pre-assay” fluorescence measurement. Fluorescence polarization was calculated for each sample; taking into account the “pre-assay” fluorescence measurements and subtracting the fluorescence signal of the compound/VHL only (“pre-assay”) measurements from the “post-assay” fluorescence polarization measurements, for each plane of polarization. The data were analyzed using Genedata Screener software and normalized to the “no VHL control” and “VHL control” (without compound). IC50 values were calculated using a four parameter curve fit (Robust method).

Sequence of VHL co-expressed with Elongins B and C (P40337 whole entry, looked up): as the sequence (P40337 whole entry, looked up, the tested form may be a part) above
Sequence of VHL co-expressed with Elongins B and C (Q15370 whole entry partner, looked up): as the sequence (Q15370 whole entry partner, looked up, the tested form may be a part) above
Sequence of VHL co-expressed with Elongins B and C (Q15369 whole entry partner, looked up): as the sequence (Q15369 whole entry partner, looked up, the tested form may be a part) above

| Structure (SMILES) | Kd [1] [µM] | IC50 (VHL Elongin B/C complex) [µM] | Kd (VHL Elongin B/C complex; probe binding to VHL/Elongin B/C) [µM] |
| --- | --- | --- | --- |
| Cc1cc(C(C(=O)N2C[C@H](O)CC2C2=NC(=O)C(C)(c3ccc(Br)cc3)N2)C(C)C)on1 (single isomer, unassigned) [Example 103.3] | > 150 | 292 |  |
| Cc1cc([C@@H](C(=O)N2C[C@H](O)C[C@H]2C2=NOC(C)(c3ccccc3)N2)C(C)C)on1 (single isomer, unassigned) [Example 128.1] | ≥ 150 |  |  |
| Cc1cc([C@@H](C(=O)N2C[C@H](O)C[C@H]2C2=NOC(C)(c3ccccc3)N2)C(C)C)on1 (single isomer, unassigned) [Example 128.2] | ≥ 150 |  |  |
| Cc1cc(C(C(=O)N2C[C@H](O)CC2C2=NC(=O)C(C)(C)N2)C(C)C)on1 (single isomer, unassigned) [Example 107.1] | > 150 |  |  |
| Cc1cc([C@H](C(=O)N2C[C@H](O)C[C@H]2C(=O)NCc2ccc(-c3scnc3C)cc2OCCNC(=O)c2ccc3c(c2)C(=O)OC32c3ccc(N(C)C)cc3Oc3cc(N(C)C)ccc32)C(C)C)on1 [VHL fluorescence polarization probe, (2S,4R)—N-(2-(2-(3′,6′-bis(dimethylamino)-3-oxo-3H-spiro[isobenzofuran-1,9′-xanthene]-5-carboxamido)ethoxy)-4-(4-methylthiazol-5-yl)benzyl)-4-hydroxy-1-((R)-3-methyl-2-(3-methylisoxazol-5-yl)butanoyl)pyrrolidine-2-carboxamide, reference compound] |  |  | 0.0182 |
| Cc1ncsc1-c1ccc([C@]2(C)NC(C3C[C@@H](O)CN3C(=O)[C@H]3CCCN3S(C)(=O)=O)=NC2=O)cc1 (single isomer, unassigned) [Example 120.1] | ≥ 150 |  |  |
| CC(=O)N1CCC[C@H]1C(=O)N1C[C@H](O)CC1C1=NC(=O)[C@](C)(c2ccc(-c3scnc3C)cc2)N1 (single isomer, unassigned) [Example 121.2] | ≥ 150 |  |  |
| Cc1cc([C@@H](C(=O)N2C[C@H](O)C[C@H]2C2=NOC(C)(C)N2)C(C)C)on1 [Example 126.2, (S)-1-((2S,4R)-2-(5,5-dimethyl-4,5-dihydro-1,2,4-oxadiazol-3-yl)-4-hydroxypyrrolidin-1-yl)-3-methyl-2-(3-methylisoxazol-5-yl)butan-1-one] | ≥ 150 |  |  |
| Cc1ncsc1-c1ccc([C@]2(C)NC(C3C[C@@H](O)CN3C(=O)[C@H]3CCCN3S(C)(=O)=O)=NC2=O)cc1 (single isomer, unassigned) [Example 120.2] | ≥ 150 |  |  |

Further lines, results first:

| Kd [1] [µM] | IC50 (VHL Elongin B/C complex) [µM] | Kd (VHL Elongin B/C complex; probe binding to VHL/Elongin B/C) [µM] | Structure (SMILES) |
| --- | --- | --- | --- |
| 150 |  |  | Cc1ncsc1-c1ccc([C@]2(C)NC(C3C[C@@H](O)CN3C(=O)C(c3cc(O)no3)C(C)C)=NC2=O)cc1 (single isomer, unassigned) [Example 116.3] |
| 113 | 136 |  | Cc1cc(C(C(=O)N2C[C@H](O)CC2C2=NC(=O)C(C)(c3ccc(-c4cccnc4)cc3)N2)C(C)C)on1 (single isomer, unassigned) [Example 105.2] |
| 241 | 375 |  | Cc1cc(C(C(=O)N2C[C@H](O)CC2C2=NC(=O)C(C)(c3ccc(-c4cccnc4)cc3)N2)C(C)C)on1 (single isomer, unassigned) [Example 105.1] |
| 41.6 | > 200 |  | CC(=O)N[C@H](C(=O)N1C[C@H](O)CC1C1=NC(=O)C(C)(c2ccc(Br)cc2)N1)C(C)(C)C (single isomer, unassigned) [Example 101.2] |
| > 150 | > 400 |  | Cc1cc(C(C(=O)N2C[C@H](O)CC2C2=NC(=O)C(C)(c3ccc(-c4cccnc4C)cc3)N2)C(C)C)on1 (single isomer, unassigned) [Example 106.3] |
| 0.895 | 2.96 |  | Cc1cc(C(C(=O)N2C[C@H](O)CC2C2=NC(=O)C(C)(c3ccc(-c4cccnc4C)cc3)N2)C(C)C)on1 (single isomer, unassigned) [Example 106.4] |
| 150 |  |  | Cc1ncsc1-c1ccc([C@]2(C)NC(C3C[C@@H](O)CN3C(=O)C(c3cc(O)no3)C(C)C)=NC2=O)cc1 (single isomer, unassigned) [Example 116.2] |
| 150 |  |  | Cc1ncsc1-c1ccc([C@]2(C)NC(C3C[C@@H](O)CN3C(=O)[C@@H]3CCCN3S(C)(=O)=O)=NC2=O)cc1 (single isomer, unassigned) [Example 112.2] |

Source: US11242344B2, “(4-hydroxypyrrolidin-2-yl)-heterocyclic compounds and methods of use thereof” (Genentech, Inc., priority 2017, dated 2022)
